Results on nine compounds are retold here after patent publication US7524871B2, “Thrombin inhibitors” (University of Ljubljana, Faculty of Pharmacy, priority 2001, dated 2009).

A value given as a limit tells only on which side of the number the result lay.

One experiment addresses T1, human thrombin (Homo sapiens, UniProt P00734).
T1 construct: Thrombin (human thrombin, 308 NIH units, Sigma); purchased Sigma
The experiment in a line: Enzyme assay for determination of the activity of thrombin inhibitors (chromogenic substrate S-2238). Type of experiment: biochemical.
Settings: not given
Here is the method: I. Enzyme Assay for Determination of the Activity of Thrombin Inhibitors
Thrombin cleaves amide bonds in a synthetic chromogenic substrate whereby […] coloured p-nitroaniline (p-NA) is released. The amount of p-NA produced is directly proportionate to the absorbance measured at a wavelength of 405 nm using a spectrophotometer. When thrombin inhibitor is added, the amidolytic activity of the enzyme decreases. The potency of the inhibitor is expressed by the inhibition constant (Ki).
The stock solution is pipetted into 0.5 mL aliquots and stored at −70° C. Immediately before use a working solution of thrombin of […] is prepared with HBSA buffer. The final concentration of thrombin in a microtiter plate is 0.5 NIH units/mL.
1 mM substrate solution is prepared, pipetted into 0.5 mL aliquots and stored at −20° C. Before use, 160 and 80 μM substrate solutions of the substrate are prepared with distilled water.
(§1) HBSA buffer, pH 7.5: 10 mM Hepes buffer (HEPES, Sigma), 150 mM NaCl and 0.1% (w/v) bovine serum albumin (98% bovine serum albumin, Sigma) are dissolved in bidistilled water. The pH is adjusted with 0.1 M NaOH solution.
Working solutions (final concentrations within the range 10 to 100 μM) are prepared with distilled water.
Measurements are carried out in the microtiter plate. 50 μL HBSA buffer, 50 μL inhibitor solution of different concentrations (for control 50 μL HBSA buffer) and 50 μL of thrombin solution are pipetted into the wells of a microtiter plate. The plate is incubated at a temperature of 25° C. for 15 minutes. After incubation 50 μL of the chromogenic substrate is added and the microtiter plate is placed in the spectrophotometer (Tecan, Sunrise).
(§2) Each measurement is carried out in triplicate and the result is the averaged value of three measurements.
(§3) 4. Determination of the Inhibition Constant (Ki)
Initial velocities of the reaction in the presence and absence of the inhibitor are measured. The change in the absorbance in the time unit (v) is calculated from the initial, linear part of the reaction. For competitive inhibitors it holds that
[formula] and it follows that
[formula] I=inhibitor concentration, S=substrate concentration, Km=Michaelis constant, vo=initial velocity of the reaction in the absence of inhibitor, vi=initial velocity of the reaction in the presence of inhibitor.
Measurements are carried out with two concentrations of the inhibitor and two concentrations of the substrate.
In general, Ki refers to the equilibrium dissociation constant of an inhibitor or competing ligand from its target. With `Cc1ccc(NS(=O)(=O)Cc2ccc(F)cc2Cl)c(=O)n1CC(=O)NC1CCc2nc(N)sc2C1` (stereo not drawn), the Ki was found to be 0.16 µM.

Still in this experiment, the particulars now being: human thrombin 0.5 NIH units/mL, S-2238 40 and 20 μM, HBSA buffer pH 7.5, 25° C.; read-out: Ki thrombin.
For `Cc1ccc(NS(=O)(=O)Cc2ccccc2)c(=O)n1CC(=O)NC1CCc2n[nH]cc2C1` (stereo not drawn), the Ki is 4.7 µM.

With `Cc1ccc(NCCc2ccccc2)c(=O)n1CC(=O)NC1CCc2nc(N)sc2C1` (stereo not drawn), the Ki is 0.69 µM.

As to `CCCCS(=O)(=O)Nc1ccc(C)n(CC(=O)NC2CCc3nc(N)sc3C2)c1=O` (stereo not drawn), the Ki was determined as 1.3 µM.

On to `Cc1ccc(NS(=O)(=O)Cc2ccccc2)c(=O)n1CC(=O)NC1CCc2nc(N)sc2C1` (stereo not drawn), for which the Ki came out at 0.16 µM.

Take `Cc1ccc(NS(=O)(=O)Cc2ccc(F)cc2Cl)c(=O)n1CC(=O)NCC1CCc2n[nH]cc2C1` (stereo not drawn): the Ki is 0.16 µM.

For `Cc1ccc(NS(=O)(=O)Cc2cccc(C(F)(F)F)c2)c(=O)n1CC(=O)NC1CCc2nc(N)sc2C1` (stereo not drawn), the Ki came out at 0.65 µM.

As for `Cc1ccc(NS(=O)(=O)Cc2ccccc2)c(=O)n1CC(=O)NCC1CCc2n[nH]cc2C1` (stereo not drawn), the Ki was determined as 0.21 µM.

As to `Cc1ccc(NCCc2ccccc2)c(=O)n1CC(=O)NCC1CCc2n[nH]cc2C1` (stereo not drawn), the Ki was determined as 0.82 µM.

The target in the next experiment is T2, Trypsin (bovine) (Bos taurus, UniProt P00760).
T2 construct: purchased Sigma
T2 sequence (P00760 24-246): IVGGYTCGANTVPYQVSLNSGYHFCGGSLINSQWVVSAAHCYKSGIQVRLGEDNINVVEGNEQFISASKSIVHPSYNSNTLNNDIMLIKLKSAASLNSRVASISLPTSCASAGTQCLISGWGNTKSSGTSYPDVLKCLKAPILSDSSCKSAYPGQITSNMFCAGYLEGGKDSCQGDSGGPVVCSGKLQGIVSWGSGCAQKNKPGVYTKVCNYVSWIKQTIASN
The experiment in a line: Determination of selectivity of the inhibitor activity against thrombin with respect to trypsin inhibition (chromogenic substrate S-2222). The following applies: bovine trypsin 1 mU/mL, S-2222 100 and 50 μM, HBSA buffer pH 7.5. Type of experiment: biochemical. Here is the method:
II. Determination of Selectivity of the Inhibitor Activity Against Thrombin with Respect to Trypsin Inhibition
The inhibitory activity against thrombin is determined as described above. Trypsin inhibition is measured in the same manner as in determination of inhibitory activity for thrombin except that a different chromogenic substrate is used. For both enzymes Ki is calculated. Selectivity of the inhibitor is expressed as a ratio of Ki for trypsin to Ki for thrombin.
Trypsin (bovine, 6000 BAEE Units/mg protein, Sigma): A stock solution of trypsin with the activity of 300 U/mL is prepared, pipetted into 0.2 mL aliquots and stored at −70° C. Immediately before use, the stock solution is thawed and a working solution of 4 mU/mL is prepared with HBSA buffer. The final trypsin activity in a microtiter plate is 1 mU/mL.
Before use the stock solution is thawed and 400 and 200 μM substrate solutions are prepared The final concentrations of the substrate in the reaction mixture are 100 and 50 μM.
as §1
Working solutions (final concentrations in the range from 10 to 600 μM) are prepared with distilled water.
as §2
The procedure is the same as the procedure described for determination of the inhibitory activity against thrombin. The concentrations of the reagents described for determination of the inhibitory activity with respect to trypsin are used.
as §3
It is determined in the same manner as determination of Ki for thrombin.
5. Determination of the Selectivity
Ki for thrombin and Ki for trypsin are determined. The selectivity is defined as the ratio: […]
`Cc1ccc(NS(=O)(=O)Cc2ccc(F)cc2Cl)c(=O)n1CC(=O)NC1CCc2nc(N)sc2C1` (stereo not drawn): affinity was put at a Ki of 193 µM.

`Cc1ccc(NS(=O)(=O)Cc2ccccc2)c(=O)n1CC(=O)NC1CCc2n[nH]cc2C1` (stereo not drawn) yielded a Ki of 438 µM.

With `Cc1ccc(NCCc2ccccc2)c(=O)n1CC(=O)NC1CCc2nc(N)sc2C1` (stereo not drawn), the affinity, expressed as Ki, was 147 µM.

Take `CCCCS(=O)(=O)Nc1ccc(C)n(CC(=O)NC2CCc3nc(N)sc3C2)c1=O` (stereo not drawn): the Ki was found to be 50 µM.

`Cc1ccc(NS(=O)(=O)Cc2ccccc2)c(=O)n1CC(=O)NC1CCc2nc(N)sc2C1` (stereo not drawn) registered a Ki of 260 µM.

Regarding `Cc1ccc(NS(=O)(=O)Cc2ccc(F)cc2Cl)c(=O)n1CC(=O)NCC1CCc2n[nH]cc2C1` (stereo not drawn), the Ki is more than 300 µM.

`Cc1ccc(NS(=O)(=O)Cc2cccc(C(F)(F)F)c2)c(=O)n1CC(=O)NC1CCc2nc(N)sc2C1` (stereo not drawn) had a Ki of more than 200 µM.

Compound `Cc1ccc(NS(=O)(=O)Cc2ccccc2)c(=O)n1CC(=O)NCC1CCc2n[nH]cc2C1` (stereo not drawn) registered a Ki of 376 µM.

`Cc1ccc(NCCc2ccccc2)c(=O)n1CC(=O)NCC1CCc2n[nH]cc2C1` (stereo not drawn): the Ki came to 421 µM.

The same experiment, now with this note: selectivity, ratio of Ki for trypsin to Ki for thrombin.
Take `Cc1ccc(NS(=O)(=O)Cc2ccc(F)cc2Cl)c(=O)n1CC(=O)NC1CCc2nc(N)sc2C1` (stereo not drawn): the “Ki trypsin/ Ki thrombin” value was found to be 1097.

Regarding `Cc1ccc(NS(=O)(=O)Cc2ccccc2)c(=O)n1CC(=O)NC1CCc2n[nH]cc2C1` (stereo not drawn), the “Ki trypsin/ Ki thrombin” value is reported as 93.

For `Cc1ccc(NCCc2ccccc2)c(=O)n1CC(=O)NC1CCc2nc(N)sc2C1` (stereo not drawn), the “Ki trypsin/ Ki thrombin” value is 213.

For `CCCCS(=O)(=O)Nc1ccc(C)n(CC(=O)NC2CCc3nc(N)sc3C2)c1=O` (stereo not drawn), the “Ki trypsin/ Ki thrombin” value was determined as 37.

Consider `Cc1ccc(NS(=O)(=O)Cc2ccccc2)c(=O)n1CC(=O)NC1CCc2nc(N)sc2C1` (stereo not drawn), for which the “Ki trypsin/ Ki thrombin” value came to 1625.

`Cc1ccc(NS(=O)(=O)Cc2ccc(F)cc2Cl)c(=O)n1CC(=O)NCC1CCc2n[nH]cc2C1` (stereo not drawn): the “Ki trypsin/ Ki thrombin” value is more than 1875.

`Cc1ccc(NS(=O)(=O)Cc2cccc(C(F)(F)F)c2)c(=O)n1CC(=O)NC1CCc2nc(N)sc2C1` (stereo not drawn): the “Ki trypsin/ Ki thrombin” value was more than 300.

`Cc1ccc(NS(=O)(=O)Cc2ccccc2)c(=O)n1CC(=O)NCC1CCc2n[nH]cc2C1` (stereo not drawn): the “Ki trypsin/ Ki thrombin” value was found to be 1790.

As to `Cc1ccc(NCCc2ccccc2)c(=O)n1CC(=O)NCC1CCc2n[nH]cc2C1` (stereo not drawn), the “Ki trypsin/ Ki thrombin” value stood at 526.
